Test results taken from ChEMBL document CHEMBL3286240, “Inhibition of Enterococcus faecalis biofilm formation by highly active lactones and lactams analogues of rubrolides” (Eur J Med Chem, 2014).
In brackets after ≈: the same amount, converted by molar mass.

System: Enterococcus faecalis
Experiment: Antimicrobial activity against Enterococcus faecalis assessed as bacterial growth at 87.5 ug/ml after 20 hrs by microtiter plate assay
Format: functional

Row | SMILES | Activity
1 | COc1cccc(/C=C2\OC(=O)C(Br)=C2c2cc(Cl)ccc2OC)c1 | 40.5%
2 | COc1ccc(C)cc1C1=C(Br)C(=O)O/C1=C\c1cccc(Cl)c1 | 55.8%
3 | COc1ccc(Br)cc1C1=C(Br)C(=O)N(CC(C)C)/C1=C\c1cccc(Cl)c1 | 94.2%
4 | COc1ccc(Cl)cc1C1=C(Br)C(=O)N(CC(C)C)C1(O)Cc1ccccc1Br (stereo not drawn) | 78%
5 | COc1ccc(Cl)cc1C1=C(Br)C(=O)O/C1=C\c1ccccc1Br | 68.7%
6 | COc1ccc(Cl)cc1C1=C(Br)C(=O)N(CC(C)C)/C1=C\c1ccccc1Br | 100.8%
7 | COc1ccc(Br)cc1C1=C(Br)C(=O)N(CC(C)C)/C1=C\c1ccc(Br)cc1 | 82.8%
8 | COc1ccccc1C1=C(Br)C(=O)N(CC(C)C)/C1=C\c1ccc(C(F)(F)F)cc1 | 45%
9 | COc1ccccc1C1=C(Br)C(=O)O/C1=C\c1ccc(C(F)(F)F)cc1 | 66.5%

System: Enterococcus faecalis
Experiment: Antimicrobial activity against Enterococcus faecalis assessed as bacterial growth at 21.9 ug/ml after 20 hrs by microtiter plate assay
Format: functional

Row | SMILES | Activity
10 | COc1cccc(/C=C2\OC(=O)C(Br)=C2c2cc(Cl)ccc2OC)c1 | 19.7%
11 | COc1ccc(C)cc1C1=C(Br)C(=O)O/C1=C\c1cccc(Cl)c1 | 19.4%
12 | COc1ccc(Br)cc1C1=C(Br)C(=O)N(CC(C)C)/C1=C\c1cccc(Cl)c1 | 20.4%
13 | COc1ccc(Cl)cc1C1=C(Br)C(=O)N(CC(C)C)C1(O)Cc1ccccc1Br (stereo not drawn) | 38.4%
14 | COc1ccc(Cl)cc1C1=C(Br)C(=O)O/C1=C\c1ccccc1Br | 47.5%
15 | COc1ccc(Cl)cc1C1=C(Br)C(=O)N(CC(C)C)/C1=C\c1ccccc1Br | 61.5%
16 | COc1ccc(Br)cc1C1=C(Br)C(=O)N(CC(C)C)/C1=C\c1ccc(Br)cc1 | 58.1%
17 | COc1ccccc1C1=C(Br)C(=O)N(CC(C)C)/C1=C\c1ccc(C(F)(F)F)cc1 | 4%
18 | COc1ccccc1C1=C(Br)C(=O)O/C1=C\c1ccc(C(F)(F)F)cc1 | 26%

System: Enterococcus faecalis
Experiment: Antimicrobial activity against Enterococcus faecalis assessed as bacterial growth at 1.37 ug/ml after 20 hrs by microtiter plate assay
Format: functional

Row | SMILES | Activity
19 | COc1cccc(/C=C2\OC(=O)C(Br)=C2c2cc(Cl)ccc2OC)c1 | 0.3%
20 | COc1ccc(C)cc1C1=C(Br)C(=O)O/C1=C\c1cccc(Cl)c1 | 9.1%
21 | COc1ccc(Br)cc1C1=C(Br)C(=O)N(CC(C)C)/C1=C\c1cccc(Cl)c1 | 25.1%
22 | COc1ccc(Cl)cc1C1=C(Br)C(=O)N(CC(C)C)C1(O)Cc1ccccc1Br (stereo not drawn) | 19.3%
23 | COc1ccc(Cl)cc1C1=C(Br)C(=O)O/C1=C\c1ccccc1Br | -0.8%
24 | COc1ccc(Cl)cc1C1=C(Br)C(=O)N(CC(C)C)/C1=C\c1ccccc1Br | 45.1%
25 | COc1ccc(Br)cc1C1=C(Br)C(=O)N(CC(C)C)/C1=C\c1ccc(Br)cc1 | 17.5%
26 | COc1ccccc1C1=C(Br)C(=O)N(CC(C)C)/C1=C\c1ccc(C(F)(F)F)cc1 | -5.2%
27 | COc1ccccc1C1=C(Br)C(=O)O/C1=C\c1ccc(C(F)(F)F)cc1 | -7.6%

System: Enterococcus faecalis
Experiment: Antimicrobial activity against Enterococcus faecalis assessed as bacterial growth at 10.9 ug/ml after 20 hrs by microtiter plate assay
Format: functional

Row | SMILES | Activity
28 | COc1cccc(/C=C2\OC(=O)C(Br)=C2c2cc(Cl)ccc2OC)c1 | 9.2%
29 | COc1ccc(C)cc1C1=C(Br)C(=O)O/C1=C\c1cccc(Cl)c1 | 17.7%
30 | COc1ccc(Br)cc1C1=C(Br)C(=O)N(CC(C)C)/C1=C\c1cccc(Cl)c1 | 20%
31 | COc1ccc(Cl)cc1C1=C(Br)C(=O)N(CC(C)C)C1(O)Cc1ccccc1Br (stereo not drawn) | 36.7%
32 | COc1ccc(Cl)cc1C1=C(Br)C(=O)O/C1=C\c1ccccc1Br | 33.2%
33 | COc1ccc(Cl)cc1C1=C(Br)C(=O)N(CC(C)C)/C1=C\c1ccccc1Br | 53.3%
34 | COc1ccc(Br)cc1C1=C(Br)C(=O)N(CC(C)C)/C1=C\c1ccc(Br)cc1 | 55.9%
35 | COc1ccccc1C1=C(Br)C(=O)N(CC(C)C)/C1=C\c1ccc(C(F)(F)F)cc1 | -4.2%
36 | COc1ccccc1C1=C(Br)C(=O)O/C1=C\c1ccc(C(F)(F)F)cc1 | 15.2%

System: Enterococcus faecalis
Experiment: Antimicrobial activity against Enterococcus faecalis assessed as bacterial growth at 0.68 ug/ml after 20 hrs by microtiter plate assay
Format: functional

Row | SMILES | Activity
37 | COc1cccc(/C=C2\OC(=O)C(Br)=C2c2cc(Cl)ccc2OC)c1 | -5.6%
38 | COc1ccc(C)cc1C1=C(Br)C(=O)O/C1=C\c1cccc(Cl)c1 | -4.7%
39 | COc1ccc(Br)cc1C1=C(Br)C(=O)N(CC(C)C)/C1=C\c1cccc(Cl)c1 | 17.9%
40 | COc1ccc(Cl)cc1C1=C(Br)C(=O)N(CC(C)C)C1(O)Cc1ccccc1Br (stereo not drawn) | -10.6%
41 | COc1ccc(Cl)cc1C1=C(Br)C(=O)O/C1=C\c1ccccc1Br | -3.4%
42 | COc1ccc(Cl)cc1C1=C(Br)C(=O)N(CC(C)C)/C1=C\c1ccccc1Br | 19.2%
43 | COc1ccc(Br)cc1C1=C(Br)C(=O)N(CC(C)C)/C1=C\c1ccc(Br)cc1 | -1.3%
44 | COc1ccccc1C1=C(Br)C(=O)N(CC(C)C)/C1=C\c1ccc(C(F)(F)F)cc1 | -10.2%
45 | COc1ccccc1C1=C(Br)C(=O)O/C1=C\c1ccc(C(F)(F)F)cc1 | -9.1%

System: Enterococcus faecalis
Experiment: Antimicrobial activity against Enterococcus faecalis assessed as bacterial growth at 5.5 ug/ml after 20 hrs by microtiter plate assay
Format: functional

Row | SMILES | Activity
46 | COc1cccc(/C=C2\OC(=O)C(Br)=C2c2cc(Cl)ccc2OC)c1 | 9.7%
47 | COc1ccc(C)cc1C1=C(Br)C(=O)O/C1=C\c1cccc(Cl)c1 | 17.4%
48 | COc1ccc(Br)cc1C1=C(Br)C(=O)N(CC(C)C)/C1=C\c1cccc(Cl)c1 | 21.8%
49 | COc1ccc(Cl)cc1C1=C(Br)C(=O)N(CC(C)C)C1(O)Cc1ccccc1Br (stereo not drawn) | 32.4%
50 | COc1ccc(Cl)cc1C1=C(Br)C(=O)O/C1=C\c1ccccc1Br | 36.3%
51 | COc1ccc(Cl)cc1C1=C(Br)C(=O)N(CC(C)C)/C1=C\c1ccccc1Br | 35.1%
52 | COc1ccc(Br)cc1C1=C(Br)C(=O)N(CC(C)C)/C1=C\c1ccc(Br)cc1 | 43%
53 | COc1ccccc1C1=C(Br)C(=O)N(CC(C)C)/C1=C\c1ccc(C(F)(F)F)cc1 | -8%
54 | COc1ccccc1C1=C(Br)C(=O)O/C1=C\c1ccc(C(F)(F)F)cc1 | 7.1%

System: Enterococcus faecalis
Experiment: Antimicrobial activity against Enterococcus faecalis assessed as bacterial growth at 43.8 ug/ml after 20 hrs by microtiter plate assay
Format: functional

Row | SMILES | Activity
55 | COc1cccc(/C=C2\OC(=O)C(Br)=C2c2cc(Cl)ccc2OC)c1 | 24.1%
56 | COc1ccc(C)cc1C1=C(Br)C(=O)O/C1=C\c1cccc(Cl)c1 | 39.6%
57 | COc1ccc(Br)cc1C1=C(Br)C(=O)N(CC(C)C)/C1=C\c1cccc(Cl)c1 | 26.3%
58 | COc1ccc(Cl)cc1C1=C(Br)C(=O)N(CC(C)C)C1(O)Cc1ccccc1Br (stereo not drawn) | 53.9%
59 | COc1ccc(Cl)cc1C1=C(Br)C(=O)O/C1=C\c1ccccc1Br | 47%
60 | COc1ccc(Cl)cc1C1=C(Br)C(=O)N(CC(C)C)/C1=C\c1ccccc1Br | 70%
61 | COc1ccc(Br)cc1C1=C(Br)C(=O)N(CC(C)C)/C1=C\c1ccc(Br)cc1 | 59.7%
62 | COc1ccccc1C1=C(Br)C(=O)N(CC(C)C)/C1=C\c1ccc(C(F)(F)F)cc1 | 11.2%
63 | COc1ccccc1C1=C(Br)C(=O)O/C1=C\c1ccc(C(F)(F)F)cc1 | 46.3%

System: Enterococcus faecalis
Experiment: Antimicrobial activity against Enterococcus faecalis assessed as bacterial growth at 2.73 ug/ml after 20 hrs by microtiter plate assay
Format: functional

Row | SMILES | Activity
64 | COc1cccc(/C=C2\OC(=O)C(Br)=C2c2cc(Cl)ccc2OC)c1 | 11.8%
65 | COc1ccc(C)cc1C1=C(Br)C(=O)O/C1=C\c1cccc(Cl)c1 | 9.8%
66 | COc1ccc(Br)cc1C1=C(Br)C(=O)N(CC(C)C)/C1=C\c1cccc(Cl)c1 | 27%
67 | COc1ccc(Cl)cc1C1=C(Br)C(=O)N(CC(C)C)C1(O)Cc1ccccc1Br (stereo not drawn) | 30.2%
68 | COc1ccc(Cl)cc1C1=C(Br)C(=O)O/C1=C\c1ccccc1Br | 23.8%
69 | COc1ccc(Cl)cc1C1=C(Br)C(=O)N(CC(C)C)/C1=C\c1ccccc1Br | 44.9%
70 | COc1ccc(Br)cc1C1=C(Br)C(=O)N(CC(C)C)/C1=C\c1ccc(Br)cc1 | 33.9%
71 | COc1ccccc1C1=C(Br)C(=O)N(CC(C)C)/C1=C\c1ccc(C(F)(F)F)cc1 | -6.6%
72 | COc1ccccc1C1=C(Br)C(=O)O/C1=C\c1ccc(C(F)(F)F)cc1 | -4.8%

System: Enterococcus faecalis
Experiment: Antimicrobial activity against Enterococcus faecalis assessed as bacterial growth at 0.34 ug/ml after 20 hrs by microtiter plate assay
Format: functional

Row | SMILES | Activity
73 | COc1cccc(/C=C2\OC(=O)C(Br)=C2c2cc(Cl)ccc2OC)c1 | -4.1%
74 | COc1ccc(C)cc1C1=C(Br)C(=O)O/C1=C\c1cccc(Cl)c1 | -7.9%
75 | COc1ccc(Br)cc1C1=C(Br)C(=O)N(CC(C)C)/C1=C\c1cccc(Cl)c1 | 12.1%
76 | COc1ccc(Cl)cc1C1=C(Br)C(=O)N(CC(C)C)C1(O)Cc1ccccc1Br (stereo not drawn) | -1.9%
77 | COc1ccc(Cl)cc1C1=C(Br)C(=O)O/C1=C\c1ccccc1Br | -4.7%
78 | COc1ccc(Cl)cc1C1=C(Br)C(=O)N(CC(C)C)/C1=C\c1ccccc1Br | 0%
79 | COc1ccc(Br)cc1C1=C(Br)C(=O)N(CC(C)C)/C1=C\c1ccc(Br)cc1 | 0.3%
80 | COc1ccccc1C1=C(Br)C(=O)N(CC(C)C)/C1=C\c1ccc(C(F)(F)F)cc1 | -10.4%
81 | COc1ccccc1C1=C(Br)C(=O)O/C1=C\c1ccc(C(F)(F)F)cc1 | -6.7%

System: Enterococcus faecalis
Experiment: Antimicrobial activity against Enterococcus faecalis assessed as bacterial growth at 0.17 ug/ml after 20 hrs by microtiter plate assay
Format: functional

Row | SMILES | Activity
82 | COc1cccc(/C=C2\OC(=O)C(Br)=C2c2cc(Cl)ccc2OC)c1 | -1.5%
83 | COc1ccc(C)cc1C1=C(Br)C(=O)O/C1=C\c1cccc(Cl)c1 | -6.4%
84 | COc1ccc(Br)cc1C1=C(Br)C(=O)N(CC(C)C)/C1=C\c1cccc(Cl)c1 | 9.3%
85 | COc1ccc(Cl)cc1C1=C(Br)C(=O)N(CC(C)C)C1(O)Cc1ccccc1Br (stereo not drawn) | -5.1%
86 | COc1ccc(Cl)cc1C1=C(Br)C(=O)O/C1=C\c1ccccc1Br | 0.8%
87 | COc1ccc(Cl)cc1C1=C(Br)C(=O)N(CC(C)C)/C1=C\c1ccccc1Br | -4.1%
88 | COc1ccc(Br)cc1C1=C(Br)C(=O)N(CC(C)C)/C1=C\c1ccc(Br)cc1 | -2.2%
89 | COc1ccccc1C1=C(Br)C(=O)N(CC(C)C)/C1=C\c1ccc(C(F)(F)F)cc1 | -2.4%
90 | COc1ccccc1C1=C(Br)C(=O)O/C1=C\c1ccc(C(F)(F)F)cc1 | -4.5%

System: Enterococcus faecalis
Experiment: Antimicrobial activity against Enterococcus faecalis assessed as inhibition of biofilm formation after 20 hrs by crystal violet staining analysis
Format: functional, organism-based

Row | SMILES | IC50
91 | COc1cccc(/C=C2\OC(=O)C(Br)=C2c2cc(Cl)ccc2OC)c1 | 53.1 µg/mL (≈ 126 µM)
92 | COc1ccc(C)cc1C1=C(Br)C(=O)O/C1=C\c1cccc(Cl)c1 | 1.51 µg/mL (≈ 3.72 µM)
93 | COc1ccc(Br)cc1C1=C(Br)C(=O)N(CC(C)C)/C1=C\c1ccc(Br)cc1 | 6.62 µg/mL (≈ 11.6 µM)
94 | COc1ccccc1C1=C(Br)C(=O)N(CC(C)C)/C1=C\c1ccc(C(F)(F)F)cc1 | 12 µg/mL (≈ 25 µM)

Results, then the molecule that gave them:

Row | IC50 | SMILES
95 | 3.31 µg/mL (≈ 6.3 µM) | COc1ccc(Br)cc1C1=C(Br)C(=O)N(CC(C)C)/C1=C\c1cccc(Cl)c1
96 | 1.29 µg/mL (≈ 2.37 µM) | COc1ccc(Cl)cc1C1=C(Br)C(=O)N(CC(C)C)C1(O)Cc1ccccc1Br (stereo not drawn)
97 | > 87.5 µg/mL | COc1ccc(Cl)cc1C1=C(Br)C(=O)O/C1=C\c1ccccc1Br
98 | 1.48 µg/mL (≈ 2.82 µM) | COc1ccc(Cl)cc1C1=C(Br)C(=O)N(CC(C)C)/C1=C\c1ccccc1Br
